From ChEMBL document CHEMBL1201862, “PubChem BioAssay data set” (2004)
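Exposure lasted 48 hours, with cells grown in 96-well plates and compounds tested at five concentrations. GI50: concentration for 50% inhibition of growth.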 The source made the active and inactive calls. No stated cut-off is given here; in the data, active = GI50 up to about 1.1 µM and inactive = higher.

Legend:
Experiment in all cases: growth of human tumour cells (NCI), 48 h
DMS-114 = tested on: DMS-114
LXFL 529 = tested on: LXFL 529
DMS-273 = tested on: DMS-273
M19-MEL = tested on: M19-MEL
SNB-78 = tested on: SNB-78
XF498 = tested on: XF498
T47D = tested on: T47D
RXF 631 = tested on: RXF 631
HOP-18 = tested on: HOP-18

| SMILES | GI50 (LXFL 529) | GI50 (M19-MEL) | GI50 (SNB-78) | GI50 (T47D) | also measured |
| --- | --- | --- | --- | --- | --- |
| COc1cc(C2Oc3cc(-c4oc5cc(O)cc(O)c5c(=O)c4O)ccc3OC2CO)ccc1O (configuration not stated) [DEHYDROSILYLBIN] | 5.26 µM (inactive) | 14.4 µM (inactive) | > 46.6 µM (inactive) |  | GI50 (DMS-114): 9.86 µM (inactive); GI50 (DMS-273): 5.85 µM (inactive); GI50 (XF498): 10.8 µM (inactive) |
| CCCCCCCCCCCCc1ccsc1-c1ccc(-c2ccc(-c3sccc3CCCCCCCCCCCC)s2)s1 |  |  |  | > 100 µM (inactive) |  |
| Nc1nc(N)c(N=O)c(Nc2ccc(I)cc2)n1 | 9.93 µM (inactive) | 29.4 µM (inactive) | 18.2 µM (inactive) |  | GI50 (DMS-114): 20.7 µM (inactive); GI50 (DMS-273): 16.5 µM (inactive) |
| O=C(CC(=O)N1N=C(n2ccc3ccccc32)CC1c1ccccc1)Nc1ccc(Cl)cc1 (configuration not stated) | > 100 µM (inactive) | > 100 µM (inactive) | > 100 µM (inactive) |  | GI50 (DMS-114): > 100 µM (inactive); GI50 (RXF 631): > 100 µM (inactive); GI50 (DMS-273): > 100 µM (inactive); GI50 (HOP-18): > 100 µM (inactive) |
| O=C1/C(=C\c2ccccc2)C(NC2CCCCC2)c2ccccc21 (configuration not stated) |  |  |  | 1.73 µM (inactive) |  |
| CC1CCC2C(C(=O)O[C@H]3C4C=CO[C@@H](OC5OC(CO)C(O)C(O)C5O)C4[C@@]4(CO)O[C@@H]34)=CO[C@@H](OC3OC(CO)C(O)C(O)C3O)C12 (some centres not stated) |  |  |  | > 10 µM (inactive) |  |
| Cc1nc(=O)n2c(C)n[nH]c2c1C(=O)Nc1cc(Cl)cc(Cl)c1 | 29.8 µM (inactive) | 27.3 µM (inactive) | 32.4 µM (inactive) |  |  |
| Cc1ccc(NC(=O)c2nc(S)nc(N)c2-c2ccccc2C)cc1C | > 100 µM (inactive) | > 100 µM (inactive) | > 100 µM (inactive) |  | GI50 (DMS-114): > 100 µM (inactive); GI50 (DMS-273): > 100 µM (inactive); GI50 (HOP-18): > 100 µM (inactive); GI50 (XF498): > 100 µM (inactive) |
| COC(=O)C(=O)C(C#N)c1ccc(Cl)c(Cl)c1 (configuration not stated) | > 100 µM (inactive) | > 100 µM (inactive) | > 100 µM (inactive) |  | GI50 (RXF 631): > 100 µM (inactive); GI50 (DMS-273): > 100 µM (inactive); GI50 (XF498): > 100 µM (inactive) |
| CNC(=O)C(C)C1C(=O)/C(=C(O)/C=C\C(C)=C\C(C)C2OC3(C)OC(C=CC34CO4)C2C)C(=O)N1C1CCC(O)C(C)O1 (configuration not stated) |  |  |  | > 100 µM (inactive) |  |
| CCOC(CN(C)C(=O)Nc1cccc2ccccc12)OCC |  |  |  | > 10 µM (inactive) |  |
| OCCC1(O)CCC(O)CC1 (configuration not stated) | > 100 µM (inactive) | > 100 µM (inactive) | > 100 µM (inactive) |  | GI50 (DMS-114): > 100 µM (inactive); GI50 (DMS-273): > 100 µM (inactive); GI50 (HOP-18): > 100 µM (inactive) |
| NC(=O)c1nnsc1NN=O |  |  |  | > 100 µM (inactive) |  |
| O=C1C(O)=C(CCCc2ccc(Oc3ccccc3)cc2)C(=O)c2ccccc21 | 4.98 µM (inactive) | 7.13 µM (inactive) | 28.1 µM (inactive) |  | GI50 (DMS-114): 4.73 µM (inactive); GI50 (DMS-273): 3.89 µM (inactive); GI50 (XF498): 9.02 µM (inactive) |
| CCOC(=O)C1=COC(C)(CCc2ccccc2)CC1=O (configuration not stated) |  |  |  | 47.2 µM (inactive) |  |
| O=[N+]([O-])c1ccc(NN/N=N/c2ccc(-c3nc4ccccc4[nH]3)cc2)c([N+](=O)[O-])c1 |  |  |  | 30.1 µM (inactive) |  |

| SMILES | GI50 (LXFL 529) | GI50 (M19-MEL) | GI50 (SNB-78) | GI50 (T47D) | also measured |
| --- | --- | --- | --- | --- | --- |
| O=C(NC(Nc1ccc(F)c(Cl)c1)(C(F)(F)F)C(F)(F)F)OCc1ccccc1 |  |  |  | 28.1 µM (inactive) |  |
| COc1cc2c3c(c4cc(OC)c(OC)cc4c2cc1OC)[C@H](O)[C@@H]1CCCN1C3 |  |  |  | 0.0269 µM (active) |  |
| CC1=C(C(=O)OCCc2ccc([N+](=O)[O-])cc2)C(c2ccccc2[N+](=O)[O-])C(C(=O)OC(C)C)=C(C)N1 (configuration not stated) |  |  |  | 3.9 µM (inactive) |  |
| CC1CCCC(C(=O)/C(=C/c2cccc(Cl)c2)C(=O)C(=O)O)C1 (configuration not stated) | 19.7 µM (inactive) | 18.7 µM (inactive) | 55.2 µM (inactive) |  | GI50 (DMS-114): 21 µM (inactive); GI50 (DMS-273): 34.8 µM (inactive); GI50 (HOP-18): 91 µM (inactive) |
| CC(O)(c1ccc(OCCC[N+](C)(C)C)cc1)C(C)(O)c1ccc(OCCC[N+](C)(C)C)cc1 (configuration not stated) | > 100 µM (inactive) |  | > 100 µM (inactive) |  | GI50 (DMS-114): > 100 µM (inactive); GI50 (DMS-273): > 100 µM (inactive); GI50 (HOP-18): > 100 µM (inactive) |
| c1ccc(C2N=NN(c3ccccc3)C2N2CCCCC2)cc1 (configuration not stated) | > 100 µM (inactive) | > 100 µM (inactive) | 75 µM (inactive) |  | GI50 (DMS-114): > 100 µM (inactive); GI50 (XF498): 49.5 µM (inactive) |
| O=c1n(CCCN2CCOCC2)nc2n1-c1ccc3ccccc3c1SC2 |  |  |  | 61.8 µM (inactive) |  |
| Cc1cc(C)nc(NS(=O)(=O)c2ccc(NC(=O)c3cc([N+](=O)[O-])cc([N+](=O)[O-])c3)cc2)n1 |  |  |  | 49.4 µM (inactive) |  |
| O=C1c2ccc3ccccc3c2CCC1N1CCCCC1 (configuration not stated) |  |  |  | 21.2 µM (inactive) |  |
| O/N=C1/Nc2ccccc2C(=S)N2CSCC12 (configuration not stated) |  |  |  | 54.2 µM (inactive) |  |
| Cc1ccc2c(c1)NC(=O)CCSSCCC(=O)N2 |  |  |  | > 100 µM (inactive) |  |
| COC(=O)C1Cc2c(OC)ccc(OC)c2CC(C(=O)OC)C1=O (configuration not stated) |  |  |  | > 100 µM (inactive) |  |
| O=C1/C(=C/c2ccc(Cl)cc2)N=C(c2ccccc2)N1c1ccc(S(=O)(=O)Nc2nccs2)cc1 |  |  |  | 21.7 µM (inactive) |  |
| COc1ccc(S(=O)(=O)Nc2ccc(-c3csc(N4C(=O)/C(=C/c5ccccc5)N=C4c4ccccc4)n3)cc2)cc1Cl |  |  |  | 17.9 µM (inactive) |  |
| COc1c(O)cc2c(c1O)C(=O)C(Cc1ccc(O)cc1)CO2 (configuration not stated) |  |  |  | > 100 µM (inactive) |  |
